The record followed here is the OligoGym collection.

Several values for one entry are separate records, joined by “and”; a condition that tells them apart may be missing. Identical values can stand only once. After the bases stand the sugars from the 5' end (letter, count) and the backbone: PS all phosphorothioate, else s phosphorothioate and o phosphodiester by linkage. Methylation of C is not given here. e = 2'-O-(2-methoxyethyl) (MOE); k = constrained ethyl (cEt); d = 2'-deoxy (DNA)

This series addresses APOL1. Particulars: ASO.

As to CACAGCATTGAGTACA (sugars k4 d9 k3, PS), the target mRNA inhibition runs as follows: (A431, 0.0625 µM) 44%; (A431, 0.25 µM) 66%; (A431, 1 µM) 86%.

Under “A431, 2 µM”, “CACATCATTGGGTTAT (sugars kkddddkekekddddd, PS)” yielded a target mRNA inhibition of 74%.

Regarding “CACTTTACATGCACGA (sugars kkdddddddddkekek, PS)”, the target mRNA inhibition (A431, 0.0156 µM) was found to be 21%; the target mRNA inhibition (A431, 0.0625 µM) came to 38%; the target mRNA inhibition (A431, 0.25 µM) was found to be 69%; the target mRNA inhibition (A431, 1 µM) was determined as 89%.

For the setting “A431, 2 µM”, “CAGATGGGTACTTCTG (sugars kdddddkekekddddd, PS)” registered a target mRNA inhibition of 44%.

Take “CAGATGGGTACTTCTG (sugars kddddkekekeddddd, PS)”: under “A431, 2 µM”, the target mRNA inhibition was 23%.

CAGATTCTGTGTGCTC (sugars k4 d9 k3, PS) yielded a target mRNA inhibition (A431, 0.0625 µM) of 51%; a target mRNA inhibition (A431, 0.25 µM) of 68%; a target mRNA inhibition (A431, 1 µM) of 75%.

As to “CAGTTTTGTAAGTGCA (sugars k2 d4 e3 k2 d5, PS)”, the target mRNA inhibition (A431, 2 µM) was 92%.

For CAGTTTTGTAAGTGCA (sugars k4 d9 k3, PS), the target mRNA inhibition was found to be 96% (A431, 0.0625 µM); 98% (A431, 0.25 µM); 99% (A431, 1 µM).

“CAGTTTTGTAAGTGCA (sugars kddddkekekeddddd, PS)”: the target mRNA inhibition (A431, 2 µM) was determined as 48%.

As to “CAGTTTTGTAAGTGCA (sugars kkkddddkdkdkdddd, PS)”, the target mRNA inhibition runs as follows: (A431, 0.04 µM) 57% and 50%; (A431, 1 µM) 92%; (A431, 2 µM) 93%.

“CAGTTTTGTAAGTGCA (sugars kkkddddkekekdddd, PS)” displayed a target mRNA inhibition (A431, 2 µM) of 87%.

Regarding CATTCAGAATTTCCAC (sugars k4 d9 k3, PS), the target mRNA inhibition was 15% (A431, 0.04 µM); 56% (A431, 0.0625 µM); 81% (A431, 0.25 µM); 90% and 81% (A431, 1 µM).

“CATTCAGAATTTCCAC (sugars kkkddddkekeddddd, PS)” returned a target mRNA inhibition (A431, 2 µM) of 86%.

Regarding CCCTTTTGGCACCTTC (sugars k4 d9 k3, PS), the target mRNA inhibition was 52% and 73% (A431, 0.0625 µM); 81% and 88% (A431, 0.25 µM); 94% and 93% (A431, 1 µM).

In the case of “CCGTCAATATATTCTT (sugars k3 d4 k3 e1 d5, PS)”, the target mRNA inhibition by setting is: (A431, 0.0156 µM) 36%; (A431, 0.0625 µM) 70%; (A431, 0.25 µM) 92%; (A431, 1 µM) 96%; (A431, 2 µM) 98%.

Regarding CCGTTCCAGGCCTCAT (sugars k4 d9 k3, PS), the target mRNA inhibition runs as follows: (A431, 0.0625 µM) 48%; (A431, 0.25 µM) 66%; (A431, 1 µM) 65%.

The sequence “CGCAATGCTGACTTGG (sugars k2 d4 e3 k2 d5, PS)” registered a target mRNA inhibition (A431, 2 µM) of 88%.

Sequence “CGCAATGCTGACTTGG (sugars kkddddkdkdkddddd, PS)” showed a target mRNA inhibition (A431, 2 µM) of 94%.

Turning to “CGTCAATATATTCTTT (sugars kdddddkekekddddd, PS)”, the target mRNA inhibition (A431, 2 µM) was found to be 90%.

Regarding “CGTCAATATATTCTTT (sugars kkddddkekekddddd, PS)”, the target mRNA inhibition runs as follows: (A431, 0.0156 µM) 20%; (A431, 0.0625 µM) 41%; (A431, 0.25 µM) 75%; (A431, 1 µM) 90%; (A431, 2 µM) 94%.

Regarding “CGTCAATATATTCTTT (sugars kkkddddkdkdkdddd, PS)”, the target mRNA inhibition (A431, 0.0156 µM) stood at 23%; the target mRNA inhibition (A431, 0.0625 µM) was determined as 61%; the target mRNA inhibition (A431, 0.25 µM) turned out to be 84%; the target mRNA inhibition (A431, 1 µM) was 93%; the target mRNA inhibition (A431, 2 µM) is 95%.

CGTTCCAGGCCTCATT (sugars k4 d9 k3, PS) came in with a target mRNA inhibition (A431, 0.0625 µM) of 40%; a target mRNA inhibition (A431, 0.25 µM) of 60%; a target mRNA inhibition (A431, 1 µM) of 82%.

Sequence “CTAATTTTCTGACTGT (sugars kkddddekekeddddd, PS)” showed a target mRNA inhibition (A431, 2 µM) of 90%.

The sequence “CTAATTTTCTGACTGT (sugars kkkddddkekekdddd, PS)” had a target mRNA inhibition (A431, 2 µM) of 90%.

“CTGAAGATTGGCTCTG (sugars kkddddekekeddddd, PS)” yielded a target mRNA inhibition (A431, 2 µM) of 53%.

For CTGTTCTAACTCTTGG (sugars k4 d9 k3, PS), the target mRNA inhibition was found to be 61% (A431, 0.0625 µM); 79% (A431, 0.25 µM); 87% (A431, 1 µM).

Where the note is “A431, 2 µM”, “CTGTTCTAACTCTTGG (sugars kkddddkekekddddd, PS)” displayed a target mRNA inhibition of 88%.

Consider CTTCTGTTAGATACAA (sugars k4 d9 k3, PS), for which the target mRNA inhibition turned out to be 46% (A431, 0.0625 µM); 73% (A431, 0.25 µM); 90% (A431, 1 µM).

For CTTCTTATGTTATCCT (sugars k4 d9 k3, PS), the target mRNA inhibition is, setting by setting: (A431, 0.0625 µM) 35%; (A431, 0.25 µM) 72%; (A431, 1 µM) 85%.

For the sequence “CTTTAAACTCAGGTGA (sugars kkddddkekekkdddd, PS)”, the target mRNA inhibition (A431, 2 µM) came out at 70%.

Turning to “CTTTATACCAGTGTCT (sugars k2 d4 e3 k2 d5, PS)”, the target mRNA inhibition amounted to 12% (A431, 0.0156 µM); 46% (A431, 0.0625 µM); 74% (A431, 0.25 µM); 92% (A431, 1 µM); 96% (A431, 2 µM).

On to “CTTTATACCAGTGTCT (sugars kekddddeekkddddd, PS)”, for which the target mRNA inhibition (A431, 0.0156 µM) turned out to be 22%; the target mRNA inhibition (A431, 0.0625 µM) came out at 41%; the target mRNA inhibition (A431, 0.25 µM) worked out at 69%; the target mRNA inhibition (A431, 1 µM) came to 89%; the target mRNA inhibition (A431, 2 µM) was determined as 95%.

In turn, “CTTTATACCAGTGTCT (sugars kkddddkekekddddd, PS)” came in with a target mRNA inhibition (A431, 2 µM) of 86%.

Where the note is “A431, 2 µM”, “GAACGCAATGCTGACT (sugars kkkddddkekekdddd, PS)” had a target mRNA inhibition of 48%.

Regarding “GAAGATTGGCTCTGGC (sugars k2 d4 e3 k2 d5, PS)”, the target mRNA inhibition (A431, 2 µM) came out at 81%.

Turning to “GAAGATTGGCTCTGGC (sugars kkkddddkekeddddd, PS)”, the target mRNA inhibition (A431, 2 µM) came out at 75%.

Turning to “GAATTATGGAATTGCA (sugars k2 d4 e4 k2 d4, PS)”, the target mRNA inhibition (A431, 2 µM) stood at 95%.

The sequence “GAATTATGGAATTGCA (sugars kkddddekekeddddd, PS)” gave a target mRNA inhibition (A431, 2 µM) of 95%.

“GAATTATGGAATTGCA (sugars kkddddkekekkdddd, PS)” showed a target mRNA inhibition (A431, 2 µM) of 61%.

In the case of “GAATTATGGAATTGCA (sugars kkkddddkekekdddd, PS)”, where the note is “A431, 2 µM”, the target mRNA inhibition stood at 61%.

As to GAGCGATTGTCTTGTT (sugars k4 d9 k3, PS), the target mRNA inhibition reads like this: (A431, 0.0625 µM) 62% and 83%; (A431, 0.25 µM) 85% and 92%; (A431, 1 µM) 92% and 95%.

Consider “GAGTATTGTTTTTGTG (sugars k3 d5 k3 d5, PS)”, for which the target mRNA inhibition is 37% (A431, 0.0156 µM); 74% and 66% (A431, 0.0625 µM); 91% and 88% (A431, 0.25 µM); 95% and 94% (A431, 1 µM); 93% and 94% (A431, 2 µM).

Take “GAGTATTGTTTTTGTG (sugars kkddddkdkdkddddd, PS)”: the target mRNA inhibition runs as follows: (A431, 0.0156 µM) 17%; (A431, 0.0625 µM) 34%; (A431, 0.25 µM) 70%; (A431, 1 µM) 88%; (A431, 2 µM) 92%.

“GAGTATTGTTTTTGTG (sugars kkddddkekekddddd, PS)” gave a target mRNA inhibition (A431, 2 µM) of 90%.

For “GAGTATTGTTTTTGTG (sugars kkkddddkdkdkdddd, PS)”, the target mRNA inhibition (A431, 2 µM) was found to be 54%.

As to GATGTGTTTAGGCATT (sugars k4 d9 k3, PS), the target mRNA inhibition reads like this: (A431, 0.25 µM) 71% and 83%; (A431, 1 µM) 90% and 91%.

Take GATTTTCCAACAAGGT (sugars k4 d9 k3, PS): the target mRNA inhibition runs as follows: (A431, 0.0625 µM) 54%; (A431, 0.25 µM) 80%; (A431, 1 µM) 92%.

Turning to GCAAGGTTGTCCAGAG (sugars k4 d9 k3, PS), the target mRNA inhibition was found to be 43% (A431, 0.0625 µM); 61% (A431, 0.25 µM); 61% (A431, 1 µM).

“GCAATGCTGACTTGGC (sugars kdddddkekekddddd, PS)” displayed a target mRNA inhibition (A431, 2 µM) of 85%.

The sequence “GCAATGCTGACTTGGC (sugars kddddkekekeddddd, PS)” came in with a target mRNA inhibition (A431, 2 µM) of 45%.

For the sequence GCAGGTTCACATGACA (sugars k4 d9 k3, PS), the target mRNA inhibition stood at 39% (A431, 0.0625 µM); 58% (A431, 0.25 µM); 72% (A431, 1 µM).

For the setting “A431, 2 µM”, “GCAGTTTTGTAAGTGC (sugars k2 d4 e3 k2 d5, PS)” showed a target mRNA inhibition of 79%.

On to “GCAGTTTTGTAAGTGC (sugars kkkddddkekeddddd, PS)”, for which the target mRNA inhibition (A431, 2 µM) amounted to 60%.

In the case of “GCATTCAGAATTTCCA (sugars k3 d4 k3 e1 d5, PS)”, the target mRNA inhibition by setting is: (A431, 0.0156 µM) 33%; (A431, 0.0625 µM) 73%; (A431, 0.25 µM) 90%; (A431, 1 µM) 92%; (A431, 2 µM) 95%.

With GCTAATTTTCTGACTG (sugars k4 d9 k3, PS), the target mRNA inhibition was 77% and 60% (A431, 0.0625 µM); 95% and 85% (A431, 0.25 µM); 98% and 91% (A431, 1 µM).

The sequence “GCTAATTTTCTGACTG (sugars kekddddeekkddddd, PS)” showed a target mRNA inhibition (A431, 0.0156 µM) of 13%; a target mRNA inhibition (A431, 0.0625 µM) of 42%; a target mRNA inhibition (A431, 0.25 µM) of 69%; a target mRNA inhibition (A431, 1 µM) of 87%; a target mRNA inhibition (A431, 2 µM) of 94%.

“GCTAATTTTCTGACTG (sugars kkddddekekeddddd, PS)” registered a target mRNA inhibition (A431, 2 µM) of 88%.

As for “GCTAATTTTCTGACTG (sugars kkddddkekekddddd, PS)”, the target mRNA inhibition was determined as 28% (A431, 0.0156 µM); 50% (A431, 0.04 µM); 63% (A431, 0.0625 µM); 86% (A431, 0.25 µM); 92% (A431, 1 µM); 96% (A431, 2 µM).

The sequence “GCTAATTTTCTGACTG (sugars kkddddkekekkdddd, PS)” returned a target mRNA inhibition (A431, 2 µM) of 71%.
